In the supplement of paper PMC10307832:

Assays:
Experiment in all cases: relative viability (nuclei count vs DMSO), 5 days (fraction); higher = more cells survive
[1] = system: ChaGo-K-1
Procedure, shortened: (§1)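 For relative viability, nuclei counts in treated wells were divided by those in vehicle wells. Lung cancer cell lines had been pin-tool dosed in 1536-well plates the day after seeding and cultured for 5 days, then fixed and stained in one step (final 0.05% Triton X-100, 1% formaldehyde, 1 ug/ml Hoechst) and imaged at 4×. Doses were one drug alone or a fixed anchor-drug dose plus five library-drug doses (not always all listed) in √10 steps, and values are duplicate-plate medians.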

[2] = system: EKVX
Procedure, shortened: as §1

[3] = system: LC-2-ad
Procedure, shortened: as §1

[4] = system: NCI-H1623
Procedure, shortened: as §1

[5] = system: NCI-H1648
Procedure, shortened: as §1

[6] = system: NCI-H1666
Procedure, shortened: as §1

SMILES: Cc1csc(=NC2CCCCC2)n1/N=C/c1ccc(O)c(O)c1O [MIM1] + Cc1cc(Nc2cc(N3CCN(C)CC3)nc(Sc3ccc(NC(=O)C4CC4)cc3)n2)n[nH]1 [Tozasertib] (partner 0.1 µM)
- relative viability ([1]; first compound 0.2 µM): 0.246
- relative viability ([1]; first compound 0.6325 µM): 0.232
- relative viability ([1]; first compound 2 µM): 0.204
- relative viability ([1]; first compound 6.325 µM): 0.196
- relative viability ([1]; first compound 20 µM): 0.155
- relative viability ([2]; first compound 0.2 µM): 0.474
- relative viability ([2]; first compound 0.6325 µM): 0.357
- relative viability ([2]; first compound 2 µM): 0.355
- relative viability ([2]; first compound 6.325 µM): 0.28
- relative viability ([2]; first compound 20 µM): 0.337
- relative viability ([3]; first compound 0.2 µM): 0.546
- relative viability ([3]; first compound 0.6325 µM): 0.471
- relative viability ([3]; first compound 2 µM): 0.367
- relative viability ([3]; first compound 6.325 µM): 0.364
- relative viability ([3]; first compound 20 µM): 0.223
- relative viability ([4]; first compound 0.2 µM): 0.454
- relative viability ([4]; first compound 0.6325 µM): 0.402
- relative viability ([4]; first compound 2 µM): 0.43
- relative viability ([4]; first compound 6.325 µM): 0.339
- relative viability ([4]; first compound 20 µM): 0.352
- relative viability ([5]; first compound 0.2 µM): 0.371
- relative viability ([5]; first compound 0.6325 µM): 0.369
- relative viability ([5]; first compound 2 µM): 0.374
- relative viability ([5]; first compound 6.325 µM): 0.326
- relative viability ([5]; first compound 20 µM): 0.172
- relative viability ([6]; first compound 0.2 µM): 0.618
- relative viability ([6]; first compound 0.6325 µM): 0.625
- relative viability ([6]; first compound 2 µM): 0.575
- relative viability ([6]; first compound 6.325 µM): 0.47
- relative viability ([6]; first compound 20 µM): 0.446

SMILES: CCNC(=O)c1noc(-c2cc(C(C)C)c(O)cc2O)c1-c1ccc(CN2CCOCC2)cc1 [Luminespib] + Cc1cc(Nc2cc(N3CCN(C)CC3)nc(Sc3ccc(NC(=O)C4CC4)cc3)n2)n[nH]1 [Tozasertib] (partner 0.1 µM)
- relative viability ([1]; first compound 0.002 µM): 0.23
- relative viability ([1]; first compound 0.006325 µM): 0.228
- relative viability ([1]; first compound 0.02 µM): 0.159
- relative viability ([1]; first compound 0.06325 µM): 0.186
- relative viability ([1]; first compound 0.2 µM): 0.201
- relative viability ([2]; first compound 0.002 µM): 0.436
- relative viability ([2]; first compound 0.006325 µM): 0.389
- relative viability ([2]; first compound 0.06325 µM): 0.346
- relative viability ([2]; first compound 0.2 µM): 0.165
- relative viability ([3]; first compound 0.002 µM): 0.482
- relative viability ([3]; first compound 0.006325 µM): 0.493
- relative viability ([3]; first compound 0.02 µM): 0.414
- relative viability ([3]; first compound 0.06325 µM): 0.258
- relative viability ([3]; first compound 0.2 µM): 0.251
- relative viability ([4]; first compound 0.002 µM): 0.398
- relative viability ([4]; first compound 0.006325 µM): 0.415
- relative viability ([4]; first compound 0.02 µM): 0.386
- relative viability ([4]; first compound 0.06325 µM): 0.306
- relative viability ([4]; first compound 0.2 µM): 0.297
- relative viability ([5]; first compound 0.006325 µM): 0.373
- relative viability ([5]; first compound 0.02 µM): 0.362
- relative viability ([5]; first compound 0.06325 µM): 0.578
- relative viability ([5]; first compound 0.2 µM): 0.262
- relative viability ([6]; first compound 0.002 µM): 0.64
- relative viability ([6]; first compound 0.006325 µM): 0.583
- relative viability ([6]; first compound 0.02 µM): 0.601
- relative viability ([6]; first compound 0.06325 µM): 0.732
- relative viability ([6]; first compound 0.2 µM): 0.538
